Experimental data: PMC6588435 (Cell chemical biology, 2019)
Values after ≈ are worked out from the molar mass of the structure shown.

How the values were obtained:
[1] = tested on: PAS-resistant Mtb mutant folC (E153G); format: cell-based, Mycobacterium tuberculosis
[2] = tested on: PAS-resistant Mtb mutant folC (I43T); format: cell-based, Mycobacterium tuberculosis
[3] = tested on: PAS-resistant Mtb mutant thyX (−16 C->T); format: cell-based, Mycobacterium tuberculosis
INCA-R Mtb strains = assay: microbe, parasite or virus in culture; format: cell-based, Mycobacterium tuberculosis
Mtb = settings: rising up to; ref Zhao et al., 2014; cited from earlier work

Compound: Nc1ccc(C(=O)O)c(O)c1 [PAS, para-aminosalicylic acid]
- MIC, folC (E153G) [1]: 32 µg/mL (≈ 209 µM)
- MIC, folC (I43T) [2]: 32 µg/mL (≈ 209 µM)
- MIC, thyX (−16 C->T) [3]: 16 µg/mL (≈ 104 µM)
- elevation of MIC in INCA-R strains (loss of potency) (INCA-R Mtb strains): 32 fold
- MIC (INCA-R Mtb strains; Mycobacterium tuberculosis, read-out: MIC of INCA-R strains): 16 µg/mL
- MIC values of PAS-resistant mutants (Mtb): up to 8 μg/mL
